# Test results from patent US9765063B2, “Amido compounds as RORγt modulators and uses thereof” (New York University, priority 2011, dated 2017).
# “Also recorded” adds a separate entry of the source.
# Legend:
# [1] = system: human Th17 cell differentiation; test: Human Th17 cell differentiation (FACS, FIG. 2); assay type: cell-based; conditions: FIG. 2, FACS, 0.5 μM; listed as NCGC00242624
# Method: • 1) S2 cell reporter system: Identified hits from HTS are further screened and their specificity confirmed by testing against RORγ-luc, VP16-luc, RORα-luc, and DHR3-luc reporter S2 cell lines. Compounds either having no activity on VP16, RORα, and DHR3 or having ten times higher IC50 values on such reporters are selected for further tests. • 2) Cytokine induced mouse Th17 cells differentiation. Effects on mouse endogenous RORγt in a relevant physiological setting were determined by testing compounds in the Th17 cell differentiation assay. Compounds having RORγt inhibitory activity are predicted to suppress Th17 cell differentiation. Th1 or regulatory T cell differentiation was used as a counter-screen method to select specific compounds that only affect Th17 cell differentiation without having pleiotrophic effects on general T cell proliferation or cytokine production. • 3) ROR dependent Th17 cell differentiation. Compounds were further tested, by examining their effects on T cells expressing RORα or RORγ. […] Compounds affecting IL17a production or ROR regulatory pathways, however, are expected to inhibit both. • 4) Human Th17 cell differentiation. Compound effects on human RORγt will be tested by treating human cord blood CD4 T cells with select compounds to determine if such compounds alter differentiation into Th17 lineages.
# (§1) For Th1 differentiation, IL12 (10 ng/ml) and IL2 (100 U/ml) were added to naive CD4 T cell cultures instead of TGFβ and IL6.
# [2] = system: human Th1 cell differentiation; test: Human Th1 cell differentiation, IFNγ production (counter-screen, FIG. 2); assay type: cell-based; conditions: FIG. 2, FACS, 0.5 μM, naive CD4 T cells, IL12 and IL2; listed as NCGC00242624
# Method: as §1
smiles,measurement,setting,value
"COc1cc(O)c(C(CC(=O)N2CC(C)CC(C)C2)c2ccc(C(=O)O)cc2)c(OC)c1 (centres unmarked) [Compound 99, 4-(3-(3,5-Dimethylpiperidin-1-yl)-1-(2-hydroxy-4,6-dimethoxyphenyl)-3-oxopropyl)benzoic acid]",human Th17 cell differentiation,[1],selectively suppress human Th17; also recorded: suppresses human Th17 cell differentiation to a degree similar to that of NCGC00238427; also recorded: selectively suppresses human Th17 cell differentiation
same,"Th1 cell differentiation, as measured by IFNγ production",[2],does not inhibit Th1 cell differentiation
